The values below come from BindingDB's records for doi:10.1021/jm9603274 (R. W. Johnson Pharmaceutical Research Institute, 1996).

A word on the IC50: it is the concentration at which inhibition is half-maximal. Higher therefore signals a need for much substance.

This assay in a line: Inhibitory activity against thrombin induced platelet aggregation.

Structures are written as SMILES.

Take `CN[C@H](Cc1ccccc1)C(=O)N1CCC[C@H]1C(=O)N[C@H](C=O)CCCN=C(N)N` [1-(2-Methylamino-3-phenyl-propionyl)-pyrrolidine-2-carboxylic acid (1-formyl-4-guanidino-butyl)-amide]: the IC50 turned out to be 0.023 µM. In other words, the double-digit nanomolar range.
The value for `CN[C@H](Cc1ccccc1)C(=O)N1CCC[C@H]1C(=O)N[C@@H](CCCN=C(N)N)C(=O)c1nc2ccccc2s1` [RWJ-50353] was 0.023 µM.
